In a melting point compilation (Tetko et al.; mined from patent text by program, amines drawn as free bases though some values may be those of a salt):

Row | Compound | melting point [°C]
1 | COc1cc(C(=O)Cl)ccc1NC(=O)c1ccccc1-c1ccccc1 | 121 to 123
2 | Cc1ccc(N2C(=O)N(CC(=O)O)C(=O)C23CCCCC3)cc1 | 206
3 | CCCCCCCN1CCN(C(=O)C2CCC(c3cccnc3)N2)CC1 (stereo unspecified) | 138 to 143
4 | CS(=O)(=O)OC1CN(c2c(F)cc3c(=O)c(C(=O)O)cn(C4CC4)c3c2F)C1 | 240 to 244
5 | COc1cc(C=C(C#N)C(=O)Nc2cccc(Cl)c2)cc(F)c1O | 235
6 | CN1C[C@H](CN2CCC(O)(c3ccc(Cl)cc3)CC2)C=C2c3cccc4c3c(cn4C)C[C@H]21 | 101 to 107
7 | CCCCCCCCCCNC(=O)CCCCC(=O)OO | 77 to 85
8 | Cc1cccc(C2=CCN(CCCn3c(=O)[nH]c4c(Cl)cccc4c3=O)CC2)c1 | 214 to 216
9 | Cc1cccc(-n2c(CF)nc3ccc([N+](=O)[O-])cc3c2=O)c1C | 178 to 180
10 | Cc1ccc(S(=O)(=O)N2CC3CCCNC3C2)cc1 (stereo unspecified) | 95 to 97
11 | Fc1nc(NCc2ccncc2)c2nc[nH]c2n1 | 200 to 202
12 | NC(=O)N1C(=O)C(C(=O)c2cc(Cl)cs2)c2cc(C(F)(F)F)ccc21 (stereo unspecified) | 164 to 166
13 | CCCN(C(=O)c1cccc(-c2nc(=O)c3ccccc3s2)n1)C(=O)N(C)C | 191 to 192
14 | COc1cc(-c2ccc(Cl)cc2)cc2oc(=O)c(C)c(C)c12 | 148
15 | COC(=O)C1=C(C)NC(C)=C(C#N)C1c1cccc2ncc(-c3ccccc3)cc12 (stereo unspecified) | 242
16 | O=C(O)C1=Cc2cc(Cl)c(C(F)(F)F)cc2OC1C(F)(F)F (stereo unspecified) | 181 to 182
17 | CCc1cc2c(s1)-n1c(C)nnc1C(CC(=O)O)N=C2c1ccc(Cl)cc1 (stereo unspecified) | 198 to 202
18 | Cc1oc(-c2ccccc2)nc1COc1ccc(C(=O)c2ccccc2O)cc1 | 121 to 122
19 | Nc1ccccc1-c1ccc(Br)cc1N | 61 to 62
20 | Ic1ccc(OC2CCCCO2)cc1 (stereo unspecified) | 66
21 | COc1ccc2c(c1)CCC1C2CCC2(C)C(OC(C)(C)C)CCC12 (stereo unspecified) | 91 to 92.5
22 | CCn1cc(Cc2ccc(C(=O)OC)cc2OC)c2cc(NC(=O)CC3CCCC3)ccc21 | 144 to 146
23 | Nc1ncnc2c1c(-c1ccc(Oc3ccccc3CN3CCCCC3)cc1)cn2C1CCOC1 (stereo unspecified) | 76 to 78
24 | Clc1ccc(-c2ccn3nccc3n2)cc1 | 178 to 180
25 | CCCCc1nc2c(N)nc3ccccc3c2n1CCOCCCc1ccccc1 | 80.8 to 81.3
26 | COP(=O)(OC)C(c1ccc(F)cc1)(c1ccc(F)cc1)c1ccc(Cl)cc1 | 136 to 137

Row | Compound | melting point [°C]
27 | CCOC(=O)CCC=Cc1ccc2ccccc2c1O | 63 to 64
28 | O=C1O[C@@H]2C[C@@]1(O)C=C(OCc1ccc3sccc3c1)[C@H]2O | 177 to 179
29 | O=C(c1ccc(F)cc1)C1CCN(C2CN(Cc3ccncc3)CCC2O)CC1 (stereo unspecified) | 182
30 | NC1(Cc2ccc(C(=O)Nc3ccncc3)cc2)C=CC=CC1 (stereo unspecified) | 76.8 to 77.6
31 | Cc1c([N+](=O)[O-])ccnc1CSc1nc2ccc(C(F)(F)F)cc2[nH]1 | 192 to 193
32 | O=C(NC1C2CC3CC(C2)CC1C3)c1cc(-c2ccc(Cl)cc2)n(Cc2ccc(Cl)cc2Cl)n1 (stereo unspecified) | 154
33 | CCCNC1=NS(=O)(=O)c2c(sc(C)c2C#N)N1 | 293 to 298
34 | CC(=O)NNC(=S)Nc1cc(C)ccc1Cl | 145 to 157
35 | CCCCCCCCC1CC(Cn2cncn2)(c2ccc(OC)cc2)N(C)O1 (stereo unspecified) | 89 to 91
36 | CCCNC(=O)C(C)=Cc1ccc2c(c1)c(Cc1ccc(C(=O)O)cc1OC)cn2CC(=O)N(C)C | 232 to 235
37 | O=C1c2ccc(Nc3ccc(F)cc3F)cc2CCc2cc(OCCCO)ccc21 | 154
38 | N#Cc1ccc(-c2cn(-c3ccc(I)cc3)c(SCC(O)CO)n2)cc1 (stereo unspecified) | 160 to 174
39 | Nc1ncnc2c1ncn2[C@H]1CO[C@@H](CO)C1 | 183 to 185
40 | CC(=O)OC1CSC(Sc2ccccc2C#N)C(OC(C)=O)C1OC(C)=O (stereo unspecified) | 160
41 | O=C1CCCc2cc(CCN3CCN(c4nsc5ccccc45)CC3)ccc2N1 | 173 to 174
42 | CN(C)C(=O)Nc1scc(C(C)(C)C)c1C#N | 140
43 | COc1ccc(-c2cccn2-c2ccc(S(C)(=O)=O)cc2)cc1 | 183 to 184
44 | Cn1c(NC(=O)c2ccccc2)nc2ccccc2c1=O | 185 to 187
45 | NC(=O)c1c(N)cccc1OCc1ccccc1 | 158 to 160
46 | COc1ccc(F)cc1NC(=O)Nc1ccc(N2CCN(C(=O)Nc3ccc(OCC(O)CO)cc3C(F)(F)F)CC2)nc1 (stereo unspecified) | 195
47 | CNCc1ccc(CSCCNC2=NS(=O)(=O)N=C2NC)o1 | 50 to 56
48 | CCCCCC(=O)N1CCc2nc3ccccc3c(C)c2CC1 | 109
49 | CC(O)(Cn1ccnc1)c1ccc2c(c1)Cc1ccccc1-2 (stereo unspecified) | 183 to 184
50 | COC(=O)CCC(=O)c1ccc(Br)cc1 | 49 to 51
51 | CCC1(C)SC(=NOC(=O)NC)N=C1C (stereo unspecified) | 115 to 117
